Some results are limits rather than exact numbers.

Assay [1] addresses T1, F876L mutant Androgen Receptor (AR-F876L) (Homo sapiens (Human), UniProt P10275, F877L). The assay is described as follows: LNCaP-AR-F876L AG reporter assay (agonist mode). Type of assay: cell-based. To be noted: for EC50: read-out: LNCaP-AR-F876L AG pEC50 (converted); for Emax: read-out: LNCaP-AR-F876L AG MAX % Stim.
The target in assay [2] is T2, wild-type Androgen Receptor (AR-wt) (Homo sapiens (Human), UniProt P10275). The assay is described as follows: LNCaP-AR-wt ANT reporter assay (antagonist mode). It counts as cell-based. To be noted: for IC50 / LNCaP-AR-wt ANT pIC50: antagonist mode, pIC50 = −Log10(IC50 in Molar); for IC50: read-out: LNCaP-AR-wt ANT pIC50 (converted); for Emax: read-out: LNCaP-AR-wt ANT MAX % Inh. On the technique in general: In a reporter assay the amount or activity of a reporter protein is the signal.

Another assay concerns rGABA-gated Cl− channel. Kind of assay: GABA-Gated Cl Channel Antagonist Radioligand Binding Assay. Further details: species or system rat. The following applies: 10 μM single point, [35S]-TBPS, cerebral cortex membrane homogenates. A digest of the protocol: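 Rat cerebral cortex membranes (120 μg protein) incubated 120 min at 22° C with 3 nM […] in 50 mM Na2HPO4/KH2PO4 pH 7.4, 500 mM NaCl; nonspecific binding defined with 20 μM picrotoxinin. Bound label counted after filtration; values are percent inhibition of specific binding at 10 μM compound.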

Assay [3] concerns the target T2, wild-type Androgen Receptor (AR-wt). Kind of assay: LNCaP-AR-wt AG reporter assay (agonist mode). Type of assay: cell-based. The following applies: for EC50: read-out: LNCaP-AR-wt AG pEC50 (converted); for Emax: read-out: LNCaP-AR-wt AG MAX % Stim.
Assay [4] has as its target T1, F876L mutant Androgen Receptor (AR-F876L). Kind of assay: LNCaP-AR-F876L ANT reporter assay (antagonist mode). Type of assay: cell-based. To be noted: for IC50 / LNCaP-AR-F876L ANT pIC50: antagonist mode, pIC50 = −Log10(IC50 in Molar); for IC50: read-out: LNCaP-AR-F876L ANT pIC50 (converted); for Emax: read-out: LNCaP-AR-F876L ANT MAX % Inh.
Where [5] appears, read: agonist mode, pEC50 = −Log10(EC50 in Molar).
The mark [6] stands for this setting: maximum % stimulation (agonist response) over the tested concentration range.
[7] abbreviates: maximum % inhibition of R1881 control response over the tested concentration range.

T2 sequence (P10275 whole entry): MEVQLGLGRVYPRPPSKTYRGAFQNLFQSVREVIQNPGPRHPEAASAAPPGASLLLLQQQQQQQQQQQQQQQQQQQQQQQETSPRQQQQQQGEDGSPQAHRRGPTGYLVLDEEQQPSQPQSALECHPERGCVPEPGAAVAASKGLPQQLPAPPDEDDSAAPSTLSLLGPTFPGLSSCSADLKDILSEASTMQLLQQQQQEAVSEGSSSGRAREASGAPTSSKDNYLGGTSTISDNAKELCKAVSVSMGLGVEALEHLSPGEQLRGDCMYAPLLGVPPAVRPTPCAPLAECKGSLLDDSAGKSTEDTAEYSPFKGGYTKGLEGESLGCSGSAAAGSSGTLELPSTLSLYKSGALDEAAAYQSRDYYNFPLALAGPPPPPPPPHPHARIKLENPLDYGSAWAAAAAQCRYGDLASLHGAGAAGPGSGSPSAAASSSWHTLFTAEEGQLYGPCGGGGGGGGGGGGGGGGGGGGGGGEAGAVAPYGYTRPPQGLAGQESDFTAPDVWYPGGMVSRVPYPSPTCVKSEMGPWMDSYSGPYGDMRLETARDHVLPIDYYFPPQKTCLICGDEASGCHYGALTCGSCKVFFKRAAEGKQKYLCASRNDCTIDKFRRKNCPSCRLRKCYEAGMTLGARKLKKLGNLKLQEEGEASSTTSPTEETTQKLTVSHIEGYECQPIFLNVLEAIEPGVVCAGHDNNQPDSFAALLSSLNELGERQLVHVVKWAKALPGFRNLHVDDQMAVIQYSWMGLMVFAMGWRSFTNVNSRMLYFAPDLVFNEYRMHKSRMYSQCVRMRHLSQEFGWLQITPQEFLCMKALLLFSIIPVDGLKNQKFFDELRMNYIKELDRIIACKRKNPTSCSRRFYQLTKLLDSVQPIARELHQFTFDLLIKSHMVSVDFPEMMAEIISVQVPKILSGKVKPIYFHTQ
T1 sequence (P10275 whole entry F877L): as the sequence (P10275 whole entry) above, with F877L counted along it

With `COCCn1cc2cc(N3C(=S)N(c4cnc(C#N)c(C(F)(F)F)c4)C(=O)C34CCC4)ccc2n1` [Cpd 172, 5-[8-[2-(2-methoxyethyl)indazol-5-yl]-5-oxo-7-thioxo-6,8-diazaspiro[3.4]octan-6-yl]-3-(trifluoromethyl)pyridine-2-carbonitrile], the EC50 in assay [1] (setting [5]) and in assay [3] (setting [5]) was greater than 15100 nM each time. The Emax in assay [1] (setting [6]) was -0.1%; in assay [2] (setting [7]), 99.2%; in assay [3] (setting [6]) it was 0.2%; in assay [4] (setting [7]) it was 100%. For the same compound, the IC50 in assay [2] was 339 nM; in assay [4], 174 nM. Besides, the “rGABA-gated Cl− channel % inh @10 μM” value with rGABA-gated Cl− channel came to 94.9%.

For the compound `CC1COC(COc2ccc(N3C(=S)N(c4cnc(C#N)c(C(F)(F)F)c4)C(=O)C34CCC4)cc2)CN1` [Cpd 91, (R,S),(R,S)-5-[8-[4-[(5-methylmorpholin-2-yl)methoxy]phenyl]-5-oxo-7-thioxo-6,8-diazaspiro[3.4]octan-6-yl]-3-(trifluoromethyl)pyridine-2-carbonitrile], the “LNCaP-AR-F876L AG pEC50” value in assay [1] (setting [5]) is reported as less than 4.82. Also, in assay [1] (setting [6]), the “LNCaP-AR-F876L AG MAX % Stim” value stood at 0.4%. Moreover, in assay [2], the “LNCaP-AR-wt ANT pIC50” value is 7.33. The “LNCaP-AR-wt ANT MAX % Inh” value in assay [2] (setting [7]) is listed as 98.3%. Also, in the assay on rGABA-gated Cl− channel, the “rGABA-gated Cl− channel % inh @10 μM” value came to 36.7%. For the same compound, the “LNCaP-AR-wt AG pEC50” value in assay [3] (setting [5]) was less than 4.82. For the same compound, the “LNCaP-AR-wt AG MAX % Stim” value in assay [3] (setting [6]) is 0.6%. Besides, the “LNCaP-AR-F876L ANT pIC50” value in assay [4] was 7.49. For the same compound, the “LNCaP-AR-F876L ANT MAX % Inh” value in assay [4] (setting [7]) was determined as 98.6%.

`N#CCN1CCC(Oc2ccc(N3C(=S)N(c4cnc(C#N)c(C(F)(F)F)c4)C(=O)C34CCC4)cn2)CC1` [Cpd 60, 5-[8-[6-[[1-(cyanomethyl)-4-piperidyl]oxy]-3-pyridyl]-5-oxo-7-thioxo-6,8-diazaspiro[3.4]octan-6-yl]-3-(trifluoromethyl)pyridine-2-carbonitrile]: the EC50 in assay [1] (setting [5]) and in assay [3] (setting [5]) was greater than 15100 nM throughout. The Emax in assay [1] (setting [6]) was 0.6%; in assay [2] (setting [7]), 99.2%; in assay [3] (setting [6]) it was 0.8%; in assay [4] (setting [7]) it was 98.1%. Further, the values for the IC50 in assay [2] and in assay [4] were 22.9 nM and 9.55 nM, respectively. Moreover, the “rGABA-gated Cl− channel % inh @10 μM” value in the assay on rGABA-gated Cl− channel came out at 91.5%.

As to `N#CCN1CCC(Oc2ccc(N3C(=S)N(c4cnc(C#N)c(Cl)c4)C(=O)C34CCC4)cn2)CC1` [Cpd 65, 3-chloro-5-[8-[6-[[1-(cyanomethyl)-4-piperidyl]oxy]-3-pyridyl]-5-oxo-7-thioxo-6,8-diazaspiro[3.4]octan-6-yl]pyridine-2-carbonitrile], the EC50 in assay [1] (setting [5]) and in assay [3] (setting [5]) was greater than 15100 nM throughout. For the same compound, the Emax in assay [1] (setting [6]) was found to be 0.4%; in assay [2] (setting [7]), 101%; in assay [3] (setting [6]), 0.4%; in assay [4] (setting [7]) it was 99.3%. The IC50 in assay [2] was 7.24 nM; in assay [4] it was 8.51 nM. The “rGABA-gated Cl− channel % inh @10 μM” value with rGABA-gated Cl− channel was 67.2%.

Take `N#Cc1ncc(N2C(=O)C3(CCC3)N(c3ccc(N4CCN(C(=O)N5CCCC5)CC4)cc3)C2=S)cc1C(F)(F)F` [Cpd 76, 5-(8-oxo-5-(4-(4-(pyrrolidine-1-carbonyl)piperazin-1-yl)phenyl)-6-thioxo-5,7-diazaspiro[3.4]octan-7-yl)-3-(trifluoromethyl)picolinonitrile]: the EC50 in assay [1] (setting [5]) and in assay [3] (setting [5]) was greater than 15100 nM in each case. Further, the Emax came to 2.2% in assay [1] (setting [6]), 102% in assay [2] (setting [7]), 0.6% in assay [3] (setting [6]) and 97.5% in assay [4] (setting [7]). Moreover, the IC50 is 93.3 nM in assay [2] and 141 nM in assay [4]. In addition, the “rGABA-gated Cl− channel % inh @10 μM” value in the assay on rGABA-gated Cl− channel is reported as 85.4%.

With `COCCn1cc2cc(N3C(=S)N(c4cnc(C#N)c(OC)c4)C(=O)C34CCC4)ccc2n1` [Cpd 175, 3-methoxy-5-[8-[2-(2-methoxyethyl)indazol-5-yl]-5-oxo-7-thioxo-6,8-diazaspiro[3.4]octan-6-yl]pyridine-2-carbonitrile], the EC50 in assay [1] (setting [5]) and in assay [3] (setting [5]) was greater than 15100 nM in each case. Also, the Emax was 0% in assay [1] (setting [6]), 101% in assay [2] (setting [7]), 0.1% in assay [3] (setting [6]) and 101% in assay [4] (setting [7]). The IC50 in assay [2] is 269 nM; in assay [4], 141 nM. Also, the “rGABA-gated Cl− channel % inh @10 μM” value with rGABA-gated Cl− channel is 25.6%.

For the compound `N#Cc1ncc(N2C(=O)C3(CCC3)N(c3ccc(OC4CCNCC4)nc3)C2=S)cc1Cl` [Cpd 64, 3-chloro-5-[5-oxo-8-[6-(4-piperidyloxy)-3-pyridyl]-7-thioxo-6,8-diazaspiro[3.4]octan-6-yl]pyridine-2-carbonitrile], the EC50 in assay [1] (setting [5]) and in assay [3] (setting [5]) was greater than 15100 nM throughout. Moreover, the Emax in assay [1] (setting [6]) was 0.1%; in assay [2] (setting [7]), 101%; in assay [3] (setting [6]), -0.2%; in assay [4] (setting [7]) it was 100%. For the same compound, the “LNCaP-AR-wt ANT pIC50” value in assay [2] amounted to 7.30. Moreover, the “rGABA-gated Cl− channel % inh @10 μM” value in the assay on rGABA-gated Cl− channel is recorded as 5.8%. Besides, the “LNCaP-AR-F876L ANT pIC50” value in assay [4] amounted to 7.33.

Consider `CN1CCC(n2ncc3cc(N4C(=S)N(c5cnc(C#N)c(Cl)c5)C(=O)C45CCC5)ccc32)CC1` [Cpd 183, 3-chloro-5-[8-[1-(1-methyl-4-piperidyl)indazol-5-yl]-5-oxo-7-thioxo-6,8-diazaspiro[3.4]octan-6-yl]pyridine-2-carbonitrile], for which the EC50 in assay [1] (setting [5]) and in assay [3] (setting [5]) was greater than 15100 nM in each case. Moreover, the Emax in assay [1] (setting [6]) was -0.1%; in assay [2] (setting [7]) it was 100%; in assay [3] (setting [6]), 0.3%; in assay [4] (setting [7]) it was 101%. The results for the IC50 in assay [2] and in assay [4] were 513 nM and 275 nM, respectively. Further, in the assay on rGABA-gated Cl− channel, the “rGABA-gated Cl− channel % inh @10 μM” value came to 37.9%.

For `N#Cc1ncc(N2C(=O)C3(CCC3)N(c3ccc(N4CCOCC4)cc3)C2=S)cc1C(F)(F)F` [Cpd 69, 5-[8-(4-Morpholinophenyl)-5-oxo-7-thioxo-6,8-diazaspiro[3.4]octan-6-yl]-3-(trifluoromethyl)pyridine-2-carbonitrile], the EC50 in assay [1] (setting [5]) and in assay [3] (setting [5]) was greater than 15100 nM each time. Besides, the Emax in assay [1] (setting [6]) was determined as 0.1%; in assay [2] (setting [7]), 101%; in assay [3] (setting [6]), 0.2%; in assay [4] (setting [7]), 98.9%. For the same compound, the IC50 in assay [2] was 115 nM; in assay [4], 69.2 nM. The “rGABA-gated Cl− channel % inh @10 μM” value in the assay on rGABA-gated Cl− channel is given as 77.5%.

In the case of `N#Cc1ncc(N2C(=O)C3(CCC3)N(c3ccc4c(c3)CCNC4)C2=S)cc1C(F)(F)F` [Cpd 108, 5-(8-oxo-5-(1,2,3,4-tetrahydroisoquinolin-6-yl)-6-thioxo-5,7-diazaspiro[3.4]octan-7-yl)-3-(trifluoromethyl)picolinonitrile], the EC50 in assay [1] (setting [5]) and in assay [3] (setting [5]) was greater than 15100 nM in each case. The Emax in assay [1] (setting [6]) is 0.2%; in assay [2] (setting [7]) it was 98.3%; in assay [3] (setting [6]) it was 0.7%; in assay [4] (setting [7]), 94.8%. Further, the IC50 in assay [2] is 1660 nM; in assay [4], 1020 nM. For the same compound, the “rGABA-gated Cl− channel % inh @10 μM” value with rGABA-gated Cl− channel came out at 17.1%.

Take `N#Cc1ncc(N2C(=O)C3(CCC3)N(c3ccc(OCC4CC(F)(F)CN4)cc3)C2=S)cc1C(F)(F)F` (stereo not drawn) [Cpd 54, 5-[8-[4-[(4,4-difluoropyrrolidin-2-yl)methoxy]phenyl]-5-oxo-7-thioxo-6,8-diazaspiro[3.4]octan-6-yl]-3-(trifluoromethyl)pyridine-2-carbonitrile]: the EC50 in assay [1] (setting [5]) and in assay [3] (setting [5]) was greater than 15100 nM each time. In addition, the Emax turned out to be 0.7% in assay [1] (setting [6]), 101% in assay [2] (setting [7]), 1.3% in assay [3] (setting [6]) and 97.1% in assay [4] (setting [7]). Also, the IC50 was 81.3 nM in assay [2] and 93.3 nM in assay [4]. For the same compound, the “rGABA-gated Cl− channel % inh @10 μM” value with rGABA-gated Cl− channel was found to be 93.0%.

As to `N#Cc1ncc(N2C(=O)C3(CCC3)N(c3ccc4nn(C5CCNCC5)cc4c3)C2=S)cc1Cl` [Cpd 180, 3-chloro-5-[5-oxo-8-[2-(4-piperidyl)indazol-5-yl]-7-thioxo-6,8-diazaspiro[3.4]octan-6-yl]pyridine-2-carbonitrile], the EC50 in assay [1] (setting [5]) and in assay [3] (setting [5]) was greater than 15100 nM throughout. Besides, the Emax is 0.2% in assay [1] (setting [6]), 106% in assay [2] (setting [7]), 0.2% in assay [3] (setting [6]) and 104% in assay [4] (setting [7]). The values for the IC50 in assay [2] and in assay [4] were 219 nM and 97.7 nM, respectively. In the assay with rGABA-gated Cl− channel, the “rGABA-gated Cl− channel % inh @10 μM” value came to 36.7%.
